# Like-named read-outs stand apart in the source and are kept apart here.
# Tests used:
# Assay type in all cases: cell-based
# [1] = system: human dendritic cells cultured with human allogenic T cells; assay: Effect on the ability of human dendritic cells to induce the growth of allogenic T cells ([3H]-thymidine incorporation); details: dendritic cells treated 3 days with test compound and TNF-α, then 5 days with allogenic T cells, read-out: IC50 (inhibition of DNA synthesis of lymphocytes)
# Procedure: Effect on the Ability of Human Dendritic Cells to Induce the Growth of Allogenic T Cells
# Immature dendritic cells were cultured with a test compound and TNF-α for 3 days by the same method as that described in Test Example 2. The obtained dendritic cells (2.5×10^3 cells/50 μl/well) were cultured together with human allogenic T cells (2.0×10^5 cells/150 μl/well) in a 96-well flat bottom plate at 37° C. for 5 days in an incubator containing 5% carbon dioxide. Thereafter, [^3H]-thymidine (Amersham Pharmacia Biotech) was added thereto at an amount of 1 μCi/10 μl/well, 16 hours before completion of the culture. After completion of the culture, cells were captured on a glass filter using a cell harvester (Skatron Instrument) and then dried. Thereafter, Scintillator ACS-II (Amersham Pharmacia Biotech) was added thereto, and the radioactivity of [^3H]-thymidine incorporated into the cells were then measured using a liquid scintillation counter. The inhibition rate of the DNA synthesis of lymphocytes was calculated using the following formula (3). Thereafter, the concentration of a test compound necessary for inhibition of 50% (IC50 value) was obtained.
# [formula] • Eexp: The amount of [^3H]-thymidine incorporated into cultured cells containing test compound • Cexp: The amount of [^3H]-thymidine incorporated into cultured cells containing no test compounds
# [2] = system: MHC class I molecules of human peripheral blood-derived dendritic cells; assay: Effect on expression of MHC class I molecules from human peripheral blood-derived dendritic cells; details: dendritic cells matured with TNF-α, 3 days; read-out: EC50 (reduction of 50% of the number of cells wherein MHC class I molecules were highly expressed)
# Source text: Effect on Expression of MHC Class I Molecules from Human Peripheral Blood-Derived Dendritic Cells
# Monocytes were isolated from human peripheral blood by the specific gravity centrifugation method. Thereafter, using mouse anti-human CD14 antibody-binding microbeads and a magnetic cell separation system (Miltenyi Biotec), CD14 positive cells were separated from the peripheral blood monocytes. The separated CD14 positive cells were suspended in an RPMI 1640 medium containing 10% FBS, and the suspension was then inoculated in a 6-well plate, resulting in a concentration of 1.0×10^6 cells/well. It was cultured at 37° C. for 20 minutes in an incubator containing 5% carbon dioxide. […] Thereafter, RPMI 1640 containing a 500 U/ml human recombinant […] (hereinafter referred to as GM-CSF; Anapure Bioscientific), 50 ng/ml human recombinant interleukin 4 (hereinafter referred to as IL-4; Pepro Tech), and 10% FBS, was added to the remaining suspension at a concentration of 2 ml/well. The obtained mixture was then cultured at 37° C. in an incubator containing 5% carbon dioxide. When adhesive CD14 positive cells are cultured in the presence of GM-CSF and IL-4, the CD14 positive cells were differentiated into non-adhesive immature dendritic cells. After the cells had been cultured for 7 days, non-adhesive cells were recovered to obtain immature dendritic cells. Using a 6-well plate, the immature dendritic cells (2.5×10^5 cells/well) were cultured in RPMI 1640 containing a 100 U/ml human recombinant tumor necrosis factor-α (hereinafter referred to as TNF-a; Pepro Tech), a test compound, and 10% FBS, at 37° C. for 3 days in an incubator containing 5% carbon dioxide. The dendritic cells became mature as a result of the presence of TNF-α, but in the present test, a test compound was allowed to simultaneously act on the cells. The mature dendritic cells were then stained with fluoroisothiocyanate-labeled mouse anti-human MHC class I monoclonal antibody (an antibody generated from the cell line W6/32 (ATCC No. CRL 1991)). The rate of the number of cells wherein MHC class I molecules were highly expressed to the total number of cells was measured by flow cytometry. The reduction rate of the number of cells wherein MHC class I molecules were highly expressed was calculated using the following formula (2), and the concentrations of test compounds necessary for reduction of 50% (EC50 values) were obtained.
# [formula] • Eexp: (The number of cells, wherein MHC class I molecules are highly expressed, in cultured cells containing test compound)/(the total number of cells) • Cexp: (The number of cells, wherein MHC class I molecules are highly expressed, in cultured cells containing no test compounds)/(the total number of cells)
# [3] = system: MHC class I molecules of T1 cells (human lymphoma cell line 174×CEM.); assay: Effect on expression of MHC class I from T1 cells (flow cytometry, MFI); details: 3 days culture
# How it was run: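 EC20 is the compound level that lowers MHC class I MFI by 20% relative to compound-free cultures. Read-out was flow cytometry after FITC W6/32 staining.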
# [4] = system: mouse splenic cells; assay: Inhibitory action on blastogenesis of mouse splenic cells ([3H]-thymidine incorporation); details: 72 hours
# Procedure: Inhibitory Action on Blastogenesis of Mouse Splenic Cells
# The spleen was excised from each of BALB/c mice (Charles River Japan; female; 10-week-old), and it was allowed to pass through a mesh to obtain a single cell suspension. This single cell suspension was prepared to be 1.0×10^6 cells/ml. Thereafter, 200 μl of the suspension was fractionated into each well of a 96-well plate. Thereafter, as blastogenic stimulation, 5 μg/ml concanavalin A (Pharmacia) or 25 μg/ml Escherichia coli-derived lipopolysaccharide (DIFCO) was added to the well, and then, a solution containing a test compound with each different concentration was further added thereto at an amount of 20 μl/well. The obtained mixture was cultured at 37° C. for 72 hours in an incubator containing 5% carbon dioxide. Thereafter, a 1 μCi/10 μl/well [^3H]-thymidine solution was added thereto 64 hours after initiation of the culture. After completion of the culture (72 hours later), the cells were captured on a filter using a cell harvester, and they were then dried. Thereafter, scintillator was added thereto, and the radioactivity of [^3H]-thymidine incorporated into the cells was then measured using a liquid scintillation counter. The inhibition rate of the DNA synthesis was calculated using the aforementioned formula (3). Thereafter, the concentration of a test compound necessary for inhibition of 50% (IC50 value) was obtained.
# [5] = 5 μg/ml concanavalin A, read-out: Lymphocyte blastogenesis IC50 (μM), ConA stimulation
# [6] = 25 μg/ml Escherichia coli-derived lipopolysaccharide, read-out: Lymphocyte blastogenesis IC50 (μM), LPS stimulation
EC50 [2],Structure (SMILES),EC20 (concentration necessary for suppressing 20% of the expression level of MHC class I molecules) [3],further results
460 nM,"O=C(Nc1ccccc1)Nc1nc2nccc(-c3cccs3)n2n1 [Example 001, 1-phenyl-3-[(7-thiophen-2-yl)-[1,2,4]triazolo[1,5-a]pyrimidin-2-yl]urea]",1100 nM,IC50 ([1]; Homo sapiens): 1230 nM
–,CC(=O)c1cccc(NC(=O)Nc2nc3nccc(-c4cccs4)n3n2)c1 [Example 005],–,IC50 [1]: 650 nM
660 nM,O=C(Nc1nc2nccc(-c3cccs3)n2n1)NC1CCCCC1 [Example 007],180 nM,IC50 ([1]; Homo sapiens): 970 nM
130 nM,COc1ccc(-c2ccnc3nc(NC(=O)NC4CCCCC4)nn23)cc1 [Example 015],45 nM,IC50 ([1]; Homo sapiens): 380 nM
290 nM,COc1ccc(-c2ccnc3nc(NC(=O)NCc4ccccc4)nn23)cc1 [Example 018],52 nM,–
160 nM,O=C(Nc1nc2nccc(-c3ccc(O)cc3)n2n1)NC1CCCCC1 [Example 024],240 nM,IC50 ([1]; Homo sapiens): 820 nM
220 nM,COc1ccc(-c2ccnc3nc(NC(=O)NC4CCCC4)nn23)cc1 [Example 027],67 nM,–
480 nM,COc1ccc(-c2ccnc3nc(NC(=O)NC(C)C)nn23)cc1 [Example 030],400 nM,IC50 ([1]; Homo sapiens): 1250 nM
210 nM,COc1ccc(-c2ccnc3nc(NC(=O)N[C@@H](C)C(=O)OC(C)(C)C)nn23)cc1 [Example 049],230 nM,IC50 ([1]; Homo sapiens): 1630 nM
–,COc1ccc(-c2ccnc3nc(NC(=O)N[C@H](C(=O)NCCN(C)C)C(C)C)nn23)cc1 [Example 057],–,IC50 [1]: 2700 nM
530 nM,COc1ccc(-c2ccnc3nc(NC(=O)NC4CCN(Cc5ccccc5)CC4)nn23)cc1 [Example 059],230 nM,–
2220 nM,COc1ccc(-c2ccnc3nc(NC(=O)NCCCN4CCOCC4)nn23)cc1 [Example 067],300 nM,–
2850 nM,COc1ccc(-c2ccnc3nc(NC(=O)N[C@H](C(=O)N4CCN(C)CC4)C(C)C)nn23)cc1 [Example 069],410 nM,–
670 nM,COc1ccc(-c2ccnc3nc(NC(=O)NC(C(=O)NCC4CCCO4)C(C)C)nn23)cc1 (stereo not shown) [Example 071],530 nM,–
–,COc1ccc(-c2ccnc3nc(NC(=O)NCCC(=O)NCC4CCCO4)nn23)cc1 (stereo not shown) [Example 158],390 nM,IC50 [1]: 690 nM
–,COc1ccc(-c2ccnc3nc(NC(=O)N[C@@H](C)CCCC(C)C)nn23)cc1 [Example 160],14 nM,"IC50 [4, 5]: 0.07 µM; IC50 [4, 6]: 0.04 µM; IC50 [1]: 156 nM"

EC50 [2],Structure (SMILES),EC20 (concentration necessary for suppressing 20% of the expression level of MHC class I molecules) [3],further results
–,CC(C)NC(=O)Nc1nc2nccc(-c3cccc(OCCC4OCCCO4)c3)n2n1 [Example 183],220 nM,"IC50 [4, 5]: 0.55 µM; IC50 [4, 6]: 0.14 µM"
–,CC(C)NC(=O)Nc1nc2nccc(-c3cccc(OCC4CCCO4)c3)n2n1 (stereo not shown) [Example 184],210 nM,"IC50 [4, 5]: 0.63 µM; IC50 [4, 6]: 0.29 µM"
–,COCCCC(C)NC(=O)Nc1nc2nccc(-c3ccc(OC)cc3)n2n1 (stereo not shown) [Example 314],80 nM,–
–,COCCCC(C)NC(=O)Nc1nc2nccc(-c3cccs3)n2n1 (stereo not shown) [Example 315],270 nM,–
–,CC(CCC(C)(C)O)NC(=O)Nc1nc2nccc(-c3cccs3)n2n1 (stereo not shown) [Example 318],40 nM,–
–,COc1cccc([C@H](C)NC(=O)Nc2nc3nccc(-c4ccc(OCC5CCOCC5)cc4)n3n2)c1 [Example 322],20 nM,–
–,COc1ccc(-c2ccnc3nc(NC(=O)NC(C)CCC4(C)OCCO4)nn23)cc1 (stereo not shown) [Example 323],30 nM,–
–,COc1ccc(-c2ccnc3nc(NC(=O)NC(C)COCC4CCOCC4)nn23)cc1 (stereo not shown) [Example 325],70 nM,–
–,COc1ccc(-c2ccnc3nc(NC(=O)NC(C)CCC(C)=O)nn23)cc1 (stereo not shown) [Example 326],210 nM,–
–,"CCOCCC(C)NC(=O)Nc1nc2nccc(-c3ccc4c(c3)OCO4)n2n1 (stereo not shown) [Example 327, 1-[7-(3,4-methylenedioxyphenyl)-[1,2,4]triazolo[1,5-a]pyrimidin-2-yl]-3-(3-ethoxy-1-methylpropyl)urea]",150 nM,–
–,CCOCC[C@H](C)NC(=O)Nc1nc2nccc(-c3ccc(OCC4CCOCC4)cc3)n2n1 [Example 328],70 nM,–
–,CCOCC[C@H](C)NC(=O)Nc1nc2nccc(-c3ccc(O)cc3)n2n1 [Example 329],60 nM,–
–,CC(CCC(C)(C)O)NC(=O)Nc1nc2nccc(-c3ccc4c(c3)OCO4)n2n1 (stereo not shown) [Example 330],210 nM,–
–,CC(COCC1CCOCC1)NC(=O)Nc1nc2nccc(-c3cccs3)n2n1 (stereo not shown) [Example 331],150 nM,–
–,COCC[C@H](C)NC(=O)Nc1nc2nccc(-c3cccs3)n2n1 [Example 332],760 nM,–
–,CC(COCC1CCOCC1)NC(=O)Nc1nc2nccc(-c3ccc4c(c3)OCO4)n2n1 (stereo not shown) [Example 335],260 nM,–
